Results: ChEMBL document CHEMBL1201862, “PubChem BioAssay data set” (2004)
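Cells were grown in 96-well plates and exposed to each compound for 48 hours at five concentrations; endpoints were interpolated linearly between bracketing concentrations, or set to the highest concentration if not reached. Here, GI50 denotes the concentration required for 50% inhibition of growth.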 Calls of active or inactive are those of the source. Cut-off read from the data, not from the text of the source: active = GI50 up to about 1.1 µM and inactive = higher.

Experiments:
Assay in all cases: growth of human tumour cells (NCI), 48 h
SNB-75 = test system: SNB-75
DU-145 = test system: DU-145
OVCAR-4 = test system: OVCAR-4
NCI-H226 = test system: NCI-H226
MDA-MB-435 = test system: MDA-MB-435
PC-3 = test system: PC-3
SF-268 = test system: SF-268
UACC-257 = test system: UACC-257
EKVX = test system: EKVX
CAKI-1 = test system: CAKI-1
SNB-19 = test system: SNB-19
NCI-H23 = test system: NCI-H23
OVCAR-8 = test system: OVCAR-8
SF-295 = test system: SF-295
MCF7 = test system: MCF7
UACC-62 = test system: UACC-62
Malme-3M = test system: Malme-3M
HT-29 = test system: HT-29
TK-10 = test system: TK-10
OVCAR-5 = test system: OVCAR-5
NCI/ADR-RES = test system: NCI/ADR-RES
SR = test system: SR
U-251 = test system: U-251
OVCAR-3 = test system: OVCAR-3
ACHN = test system: ACHN
BT-549 = test system: BT-549
M14 = test system: M14
RPMI-8226 = test system: RPMI-8226
HOP-62 = test system: HOP-62
SK-MEL-5 = test system: SK-MEL-5
HCC 2998 = test system: HCC 2998
SK-MEL-2 = test system: SK-MEL-2
LOX IMVI = test system: LOX IMVI
KM12 = test system: KM12
UO-31 = test system: UO-31
HCT-116 = test system: HCT-116
Hs-578T = test system: Hs-578T
MDA-MB-231 = test system: MDA-MB-231
COLO 205 = test system: COLO 205
NCI-H522 = test system: NCI-H522
HOP-92 = test system: HOP-92
RXF 393 = test system: RXF 393
SK-MEL-28 = test system: SK-MEL-28
IGROV-1 = test system: IGROV-1
A549 = test system: A549
NCI-H460 = test system: NCI-H460
HCT-15 = test system: HCT-15
SF-539 = test system: SF-539
CCRF-CEM = test system: CCRF-CEM
K562 = test system: K562
HL-60 = test system: HL-60
786-0 = test system: 786-0
SW-620 = test system: SW-620
MOLT-4 = test system: MOLT-4
MDA-N = test system: MDA-N
SK-OV-3 = test system: SK-OV-3
SN12C = test system: SN12C

In the case of `O=C(CBr)c1ccc2cc(Br)c3ccccc3c2c1`, the GI50 (SNB-75) is reported as 25.6 µM (inactive), the GI50 (DU-145) is reported as 22.8 µM (inactive) and the GI50 (OVCAR-4) is reported as 25.3 µM (inactive). The GI50 (NCI-H226) was 9.33 µM (inactive), the GI50 (MDA-MB-435) was 19.9 µM (inactive) and the GI50 (PC-3) was 21 µM (inactive). The GI50 (SF-268) was 20.3 µM (inactive), the GI50 (UACC-257) was 24 µM (inactive) and the GI50 (EKVX) was 24.5 µM (inactive). For the same molecule, the GI50 (CAKI-1) was 18.2 µM (inactive), the GI50 (SNB-19) was 31.9 µM (inactive) and the GI50 (NCI-H23) was 14.7 µM (inactive). The GI50 (OVCAR-8) was 24.2 µM (inactive), the GI50 (SF-295) was 24.4 µM (inactive) and the GI50 (MCF7) was 26.4 µM (inactive). The GI50 (UACC-62) was 14.1 µM (inactive), the GI50 (Malme-3M) was 15.9 µM (inactive) and the GI50 (HT-29) was 32.3 µM (inactive). For the same molecule, the GI50 (TK-10) was 21 µM (inactive), the GI50 (OVCAR-5) was 24.7 µM (inactive) and the GI50 (NCI/ADR-RES) was 36.7 µM (inactive). For the same molecule, the GI50 (SR) was 12.1 µM (inactive), the GI50 (U-251) was 46.3 µM (inactive) and the GI50 (OVCAR-3) was 20.6 µM (inactive). The GI50 (ACHN) was 52.1 µM (inactive), the GI50 (BT-549) was 18.2 µM (inactive) and the GI50 (M14) was 25.1 µM (inactive). The GI50 (RPMI-8226) was 20.3 µM (inactive), the GI50 (HOP-62) was 37.4 µM (inactive) and the GI50 (SK-MEL-5) was 14.3 µM (inactive). For the same molecule, the GI50 (HCC 2998) was 54.2 µM (inactive), the GI50 (SK-MEL-2) was 20.6 µM (inactive) and the GI50 (LOX IMVI) was 36.3 µM (inactive). For the same molecule, the GI50 (KM12) was 17.8 µM (inactive), the GI50 (UO-31) was 25.6 µM (inactive) and the GI50 (HCT-116) was 40.3 µM (inactive). For the same molecule, the GI50 (Hs-578T) was 25.8 µM (inactive), the GI50 (MDA-MB-231) was 18.2 µM (inactive) and the GI50 (COLO 205) was 24.1 µM (inactive). For the same molecule, the GI50 (NCI-H522) was 16.4 µM (inactive), the GI50 (HOP-92) was 20.9 µM (inactive) and the GI50 (RXF 393) was 18.3 µM (inactive). The GI50 (SK-MEL-28) was 25.1 µM (inactive), the GI50 (IGROV-1) was 29.6 µM (inactive) and the GI50 (A549) was 27.2 µM (inactive). The GI50 (NCI-H460) was 23 µM (inactive), the GI50 (HCT-15) was 36.1 µM and the GI50 (SF-539) was 20.9 µM (inactive). The GI50 (CCRF-CEM) was 33.3 µM (inactive), the GI50 (K562) was 26.7 µM (inactive) and the GI50 (HL-60) was 25.9 µM (inactive). The GI50 (786-0) was 37.6 µM (inactive), the GI50 (SW-620) was 25.2 µM (inactive) and the GI50 (MOLT-4) was 4.25 µM (inactive).

With `CCOc1ccccc1/C=C1\NC(=O)N(/C=C2\C(=O)Oc3ccccc3C2=O)C1=O` the GI50 (SNB-75) was 69.2 µM (inactive), the GI50 (DU-145) was 44.5 µM (inactive) and the GI50 (OVCAR-4) was 44.2 µM (inactive). For the same molecule, the GI50 (NCI-H226) was 35.5 µM (inactive), the GI50 (MDA-MB-435) was 42.6 µM (inactive) and the GI50 (PC-3) was 42.5 µM (inactive). The GI50 (SF-268) was > 100 µM (inactive), the GI50 (MDA-N) was 42 µM (inactive) and the GI50 (UACC-257) was 40.1 µM (inactive). For the same molecule, the GI50 (EKVX) was 51.6 µM (inactive), the GI50 (CAKI-1) was 99.1 µM (inactive) and the GI50 (SNB-19) was 61.7 µM (inactive). The GI50 (NCI-H23) was 31.3 µM (inactive), the GI50 (OVCAR-8) was 80.9 µM (inactive) and the GI50 (SF-295) was 44.5 µM (inactive). The GI50 (MCF7) was 46.2 µM (inactive), the GI50 (UACC-62) was 32.8 µM (inactive) and the GI50 (HT-29) was 65.5 µM (inactive). The GI50 (SK-OV-3) was 59.7 µM (inactive), the GI50 (TK-10) was 24.8 µM (inactive) and the GI50 (OVCAR-5) was > 100 µM (inactive). For the same molecule, the GI50 (NCI/ADR-RES) was 46 µM (inactive), the GI50 (U-251) was 47 µM (inactive) and the GI50 (OVCAR-3) was 30.8 µM (inactive). For the same molecule, the GI50 (ACHN) was 50.6 µM (inactive), the GI50 (BT-549) was 50.9 µM (inactive) and the GI50 (M14) was 51.4 µM (inactive). For the same molecule, the GI50 (HOP-62) was 53.1 µM (inactive), the GI50 (SK-MEL-5) was 23.9 µM (inactive) and the GI50 (HCC 2998) was 74 µM (inactive). The GI50 (SN12C) was 43.6 µM (inactive), the GI50 (SK-MEL-2) was 45.9 µM (inactive) and the GI50 (LOX IMVI) was 63.7 µM (inactive). For the same molecule, the GI50 (KM12) was 43 µM (inactive), the GI50 (UO-31) was 23.1 µM (inactive) and the GI50 (HCT-116) was 39.1 µM (inactive). The GI50 (Hs-578T) was 46.7 µM (inactive), the GI50 (MDA-MB-231) was 44.6 µM (inactive) and the GI50 (COLO 205) was 47.4 µM (inactive). For the same molecule, the GI50 (NCI-H522) was 29.2 µM (inactive), the GI50 (HOP-92) was 21 µM (inactive) and the GI50 (RXF 393) was 9.82 µM (inactive). For the same molecule, the GI50 (SK-MEL-28) was 62.4 µM (inactive), the GI50 (IGROV-1) was 35.7 µM (inactive) and the GI50 (A549) was 42.6 µM (inactive). The GI50 (NCI-H460) was 39.4 µM (inactive), the GI50 (HCT-15) was 53.8 µM and the GI50 (SF-539) was 78.5 µM (inactive). For the same molecule, the GI50 (CCRF-CEM) was 24.2 µM (inactive), the GI50 (HL-60) was 20.5 µM (inactive) and the GI50 (786-0) was 50.9 µM (inactive). For the same molecule, the GI50 (SW-620) was 51.5 µM (inactive) and the GI50 (MOLT-4) was 26.7 µM (inactive).

With `Cc1ccc(S(=O)(=O)Nn2c(C)cc3ccc(S(=O)(=O)Nc4ccccc4[N+](=O)[O-])cc3c2=O)cc1` the GI50 (SNB-75) was > 100 µM (inactive), the GI50 (DU-145) was > 100 µM (inactive) and the GI50 (OVCAR-4) was > 100 µM (inactive). The GI50 (NCI-H226) was 40.1 µM (inactive), the GI50 (MDA-MB-435) was > 100 µM (inactive) and the GI50 (PC-3) was 31.6 µM (inactive). For the same molecule, the GI50 (SF-268) was > 100 µM (inactive), the GI50 (MDA-N) was 29.6 µM (inactive) and the GI50 (UACC-257) was > 100 µM (inactive). The GI50 (EKVX) was 95.9 µM (inactive), the GI50 (CAKI-1) was > 100 µM (inactive) and the GI50 (SNB-19) was > 100 µM (inactive). The GI50 (NCI-H23) was > 100 µM (inactive), the GI50 (OVCAR-8) was > 100 µM (inactive) and the GI50 (SF-295) was 17.6 µM (inactive). The GI50 (MCF7) was 99.3 µM (inactive), the GI50 (UACC-62) was 38.9 µM (inactive) and the GI50 (Malme-3M) was > 100 µM (inactive). For the same molecule, the GI50 (HT-29) was > 100 µM (inactive), the GI50 (SK-OV-3) was > 100 µM (inactive) and the GI50 (TK-10) was > 100 µM (inactive). The GI50 (OVCAR-5) was > 100 µM (inactive), the GI50 (NCI/ADR-RES) was > 100 µM (inactive) and the GI50 (SR) was > 100 µM (inactive). For the same molecule, the GI50 (U-251) was > 100 µM (inactive), the GI50 (OVCAR-3) was 74.1 µM (inactive) and the GI50 (ACHN) was > 100 µM (inactive). The GI50 (BT-549) was > 100 µM (inactive), the GI50 (M14) was 13.6 µM (inactive) and the GI50 (RPMI-8226) was 62.8 µM (inactive). The GI50 (HOP-62) was 72.3 µM (inactive), the GI50 (HCC 2998) was > 100 µM (inactive) and the GI50 (SN12C) was 82.4 µM (inactive). For the same molecule, the GI50 (SK-MEL-2) was 39.4 µM (inactive), the GI50 (LOX IMVI) was > 100 µM (inactive) and the GI50 (KM12) was 18.2 µM (inactive). The GI50 (UO-31) was 63.7 µM (inactive), the GI50 (HCT-116) was 47.4 µM (inactive) and the GI50 (Hs-578T) was 45.3 µM (inactive). For the same molecule, the GI50 (MDA-MB-231) was > 100 µM (inactive), the GI50 (COLO 205) was 18.6 µM (inactive) and the GI50 (NCI-H522) was > 100 µM (inactive). The GI50 (HOP-92) was 94.6 µM (inactive), the GI50 (SK-MEL-28) was > 100 µM (inactive) and the GI50 (IGROV-1) was 43 µM (inactive). The GI50 (A549) was 72.8 µM (inactive), the GI50 (NCI-H460) was 77.3 µM (inactive) and the GI50 (HCT-15) was greater than 100 µM. The GI50 (SF-539) was > 100 µM (inactive), the GI50 (CCRF-CEM) was > 100 µM (inactive) and the GI50 (K562) was 3.85 µM (inactive). The GI50 (HL-60) was > 100 µM (inactive), the GI50 (786-0) was > 100 µM (inactive) and the GI50 (SW-620) was > 100 µM (inactive). The GI50 (MOLT-4) was > 100 µM (inactive).
